Key:
[1] = test system: normal human dermal fibroblasts (NHDF); assay: Labelling of human cells with dyes (plate fluorescence); type: cell-based; settings: 2 μM dye, 1 hr 37° C., washed with HBSS; higher = more incorporation
Experimental: Labelling of human cells with dyes 1-10 was performed according to the following procedure. Each well of a Costar 96 well flat bottom plate was seeded with 5,000 normal human dermal fibroblasts (NHDF; not older than P9) and allowed to attach overnight in full media: fibroblast growth media (Lonza)+2% v/v fetal calf serum. Each dye was diluted 1:50 from a stock of 1 mM with 10 mM L-histidine, 150 mM NaCl, pH 6.0, to a final concentration of 20 μM. The dye was subsequently added to full media at a further 1:10 dilution to a final concentration of 2 μM. The media on the cells was subsequently replaced with the freshly prepared full media containing the dye. For negative controls, an equivalent volume of the diluent solution was added to the cell solution. Cells were incubated for 1 hr at 37° C. and then washed with 1 xHBSS (Hank's balanced salt solution) to remove free dye. Plate was imaged using the CLARIOStar spectrophotometer (5x5 matrix mode, average of 25 data points, 3 wells for each dye). A higher fluorescence indicates a higher amount of incorporation into the cells.

[2] = test system: platelet-derived EVs; assay: Labelling of extracellular vesicles with dyes (Superose 6 HPLC, UV and FLD detection); settings: EV + 2 μM dye; for FLD area (EV + dye): 1 hr 37° C., void peak area, 562 nm/583 nm (Ex/Em); for Area FLD/Area UV (EV + dye): higher ratio = greater incorporation
Experimental: Labelling of extracellular vesicles (EVs) with dyes 1-10 was performed according to the following procedure. 20 μL of platelet-derived EVs were incubated in HPLC vials with or without each dye at a final concentration of 2 μM dye, the dye stock solution being made up in water. For negative controls, an equivalent volume of the diluent solution was added to the EV solution. The sample was mixed gently. Each sample was subsequently incubated for 1 hr at 37° C. Samples were transferred and stored in the autosampler set at 4° C. A batch table was setup that injected unlabelled EVs prior to labelled EVs. A blank injection was run after each labelled EV experiment to ensure there was no carryover. 15 μL of each sample was injected onto a Superose 6 Increase column (3.2/300) from Cytiva. The flow rate was set at 0.15 mL min* The Shimadzu BioHPLC was run in isocratic mode with Buffer A: 1× PBS (phosphate-buffered saline), pH 7.4, 100 nm filtered. The column oven temperature was set at 30° C. Total run duration was 30 min. Data was collected using two detectors. The PDA (UV detector) was set to scan from 190-800 nm and a channel of the FLD (fluorescence detector) was set at 562 nm/583 nm (Ex/Em). Titration experiments were conducted to confirm that excess dye was removed. The areas of the void peaks from the 214 nm absorption and the 583 nm emission were calculated by the LabSolutions software using the manual integration function. To normalise the fluorescent signal, the total fluorescent area was divided by the UV 214 nm area. This ratio can be used to rank each dye, with higher ratios indicative of greater incorporation.

[3] = test system: NHDF cells; assay: Labelling of NHDF cells with dyes alone and with EVs (Plexaris) labelled with dyes; type: cell-based, human; settings: for incorporation into NHDFs, Plexaris (PLX)+dye (FIG. 6): Example 9, 0.2 μM dye, 1 hr 37° C.; for extent of incorporation into cells versus dye 2 alone (FIG. 4(a)) / extent of incorporation into cells versus PLX+dye 2 (FIG. 4(b)): 0.2 μM; for extent of incorporation into cells versus dye 2 alone (FIG. 4(a)): normalised to dye 2; for extent of incorporation into cells versus PLX+dye 2 (FIG. 4(b)): dye with PLX, normalised to Plexaris+dye 2
Experimental: (§1) Labelling of NHDF cells with dyes 11-18 alone and EVs labelled with dyes 11-18 was performed according to the following procedure. Each well of a Costar 96 well flat bottom plate was seeded with 5,000 normal human dermal fibroblasts (NHDF; not older than P9) and allowed to attach overnight in full media: fibroblast growth media (Lonza)+2% v/v fetal calf serum. Each dye was diluted in water to a final concentration of 1 mM. The dyes were then diluted to a final concentration of 2 μM in either a base formulation (1× PBS) or a sample of Plexaris (purified EVs derived from platelets) in 1× PBS and incubated at 1 hr at 37° C. The dyes were subsequently added onto the NHDFs at a further 1:10 dilution to a final concentration of 0.2 μM. Cells were incubated for 1 hr at 37° C. and then washed with 1× HBSS (Hank's balanced salt solution) to remove free dye. Plate was imaged using the CLARIOStar spectrophotometer (5×5 matrix mode, average of 25 data points, 3 wells for each dye). The data was normalised against either dye 2 or Plexaris+dye 2. A higher fluorescence indicates a higher amount of incorporation into the cells.
as §1, with “with” for “with dyes 11-18 alone and”, “4, 6, 17, 18, 23, 24 and 25” for “11-18”, “phosphate buffered saline (PBS)” for “water”, “in” for “in either a base formulation (1× PBS) or a sample of”, “in” for “in 1×”, “against” for “against either dye 2 or”

CCCCCCCCCCCCCCCCN(C)C(=O)c1ccccc1-c1c2ccc(=[N+](CC)CC)cc-2oc2cc(N(CC)CC)ccc12.[Cl-] [Dye 1, Rhodamine B N-methylhexadecylamide]
FLD [1]: 120641 | FLD area (EV + dye) [2]: 2281007 | Area FLD/Area UV (EV + dye) [2]: 2.09

CCCCCCCCCCCCCCCCCCCCN(C)C(=O)c1ccccc1-c1c2ccc(=[N+](CC)CC)cc-2oc2cc(N(CC)CC)ccc12.[Cl-] [Dye 3, Rhodamine B N-methylicosaneamide]
FLD [1]: 43073 | FLD area (EV + dye) [2]: 4270562 | Area FLD/Area UV (EV + dye) [2]: 3.63

CCCCCCCCCCCCCCCCCCCCCCN(C)C(=O)c1ccccc1-c1c2ccc(=[N+](CC)CC)cc-2oc2cc(N(CC)CC)ccc12.[Cl-] [Dye 4]
FLD [1]: 18027 | FLD area (EV + dye) [2]: 1901680 | Area FLD/Area UV (EV + dye) [2]: 2.08 | incorporation into NHDFs, Plexaris (PLX)+dye (FIG. 6) [3]: found to incorporate into NHDFs

CCCCCCCCCCCCCCN(CCCCC)C(=O)c1ccccc1-c1c2ccc(=[N+](CC)CC)cc-2oc2cc(N(CC)CC)ccc12.[Cl-] [Dye 5, Rhodamine B N-pentyltetradecanamide]
FLD [1]: 106332 | FLD area (EV + dye) [2]: 2405326 | Area FLD/Area UV (EV + dye) [2]: 1.25

CCCCCCCCCCCCCCCCCCN(CCCCC)C(=O)c1ccccc1-c1c2ccc(=[N+](CC)CC)cc-2oc2cc(N(CC)CC)ccc12.[Cl-] [Dye 6, Rhodamine B N-pentyloctadecanamide]
FLD [1]: 20270 | FLD area (EV + dye) [2]: 4247970 | Area FLD/Area UV (EV + dye) [2]: 2.36 | incorporation into NHDFs, Plexaris (PLX)+dye (FIG. 6) [3]: found to incorporate into NHDFs

CCCCCCCCCCCCCCCCN(CCOC)C(=O)c1ccccc1-c1c2ccc(=[N+](CC)CC)cc-2oc2cc(N(CC)CC)ccc12.[Cl-] [Dye 7, Rhodamine B N-ethyl methyl ether hexadecanamide]
FLD [1]: 97347 | FLD area (EV + dye) [2]: 1456410 | Area FLD/Area UV (EV + dye) [2]: 1.38

CCCCCCCCCCCCCCCCCCN(CCOC)C(=O)c1ccccc1-c1c2ccc(=[N+](CC)CC)cc-2oc2cc(N(CC)CC)ccc12.[Cl-] [Dye 8, Rhodamine B N-ethyl methyl ether octadecanamide]
FLD [1]: 83404 | FLD area (EV + dye) [2]: 3422473 | Area FLD/Area UV (EV + dye) [2]: 2.92

CCCCCCCCCCCCCCCCCCN(CCO)C(=O)c1ccccc1-c1c2ccc(=[N+](CC)CC)cc-2oc2cc(N(CC)CC)ccc12.[Cl-] [Dye 9, Rhodamine B N-(2-hydroxyethyl)octadecanamide]
FLD [1]: 83536 | FLD area (EV + dye) [2]: 4558422 | Area FLD/Area UV (EV + dye) [2]: 3.33

CCCCCCCCCCCCCCCCCCCCN(CCOC)C(=O)c1ccccc1-c1c2ccc(=[N+](CC)CC)cc-2oc2cc(N(CC)CC)ccc12.[Cl-] [Dye 10, Rhodamine B N-ethyl methyl ether icosaneamide]
FLD [1]: 45943 | FLD area (EV + dye) [2]: 2826617 | Area FLD/Area UV (EV + dye) [2]: 2.55

CCCCCCCCCCCCCCCCCCCN(C)C(=O)c1ccccc1-c1c2ccc(=[N+](CC)CC)cc-2oc2cc(N(CC)CC)ccc12.[Cl-] [Dye 12, Rhodamine B N-methylnonadecylamide]
extent of incorporation into cells versus dye 2 alone (FIG. 4(a)) [3]: incorporated to the cells to a larger extent | extent of incorporation into cells versus PLX+dye 2 (FIG. 4(b)) [3]: incorporated to the cells to a larger extent

CCCCCCCCCCCCCCCCCCN(CCC)C(=O)c1ccccc1-c1c2ccc(=[N+](CC)CC)cc-2oc2cc(N(CC)CC)ccc12.[Cl-] [Dye 14, Rhodamine B N-propyloctadecylamide]
extent of incorporation into cells versus dye 2 alone (FIG. 4(a)) [3]: incorporated to the cells to a larger extent | extent of incorporation into cells versus PLX+dye 2 (FIG. 4(b)) [3]: incorporated to the cells to a larger extent

CCCCCCCCCCCCCCCCCCN(CC)C(=O)c1ccccc1-c1c2ccc(=[N+](CC)CC)cc-2oc2cc(N(CC)CC)ccc12.[Cl-] [Dye 15, Rhodamine B N-ethyloctadecylamide]
extent of incorporation into cells versus dye 2 alone (FIG. 4(a)) [3]: incorporated to the cells to a larger extent | extent of incorporation into cells versus PLX+dye 2 (FIG. 4(b)) [3]: incorporated to the cells to a larger extent

CCCCCCCC/C=C\CCCCCCCCN(C)C(=O)c1ccccc1-c1c2ccc(=[N+](CC)CC)cc-2oc2cc(N(CC)CC)ccc12 [Dye 17, Rhodamine B N-methyloleylamide]
incorporation into NHDFs, Plexaris (PLX)+dye (FIG. 6) [3]: found to incorporate into NHDFs | extent of incorporation into cells versus dye 2 alone (FIG. 4(a)) [3]: incorporated to the cells to a larger extent | extent of incorporation into cells versus PLX+dye 2 (FIG. 4(b)) [3]: incorporated to the cells to a larger extent

CCCCCCCC/C=C/CCCCCCCCN(C)C(=O)c1ccccc1-c1c2ccc(=[N+](CC)CC)cc-2oc2cc(N(CC)CC)ccc12 [Dye 18, Rhodamine B N-methylelaidylamide]
incorporation into NHDFs, Plexaris (PLX)+dye (FIG. 6) [3]: found to incorporate into NHDFs | extent of incorporation into cells versus dye 2 alone (FIG. 4(a)) [3]: incorporated to the cells to a larger extent | extent of incorporation into cells versus PLX+dye 2 (FIG. 4(b)) [3]: incorporated to the cells to a larger extent

CCCCCCCCCCCCCCCCCCN(C)C(=O)c1ccccc1-c1c2cc/c(=[N+](/CC)CC(F)(F)F)cc-2oc2cc(N(CC)CC(F)(F)F)ccc12.[Cl-] [Dye 23, hexafluoro Rhodamine B N-methyloctadecylamide]
incorporation into NHDFs, Plexaris (PLX)+dye (FIG. 6) [3]: found to incorporate into NHDFs

CCCCCCCC/C=C/CCCCCCCCN(C)C(=O)c1ccccc1-c1c2cc/c(=[N+](/CC)CC(F)(F)F)cc-2oc2cc(N(CC)CC(F)(F)F)ccc12.[Cl-] [Dye 24]
incorporation into NHDFs, Plexaris (PLX)+dye (FIG. 6) [3]: found to incorporate into NHDFs

CCCCCCCC/C=C\CCCCCCCCN(C)C(=O)c1ccccc1-c1c2cc/c(=[N+](/CC)CC(F)(F)F)cc-2oc2cc(N(CC)CC(F)(F)F)ccc12.[Cl-] [Dye 25, hexafluoro rhodamine B N-methyloleylamide]
incorporation into NHDFs, Plexaris (PLX)+dye (FIG. 6) [3]: found to incorporate into NHDFs

Source: patent US20240093034A1, “FLUORESCENT DYES” (EXOPHARM LIMITED, priority 2020, published 2024)
